According to patent US11512079B2, “Heterocycle substituted pyridine derivative antifungal agents” (Amplyx Pharmaceuticals, Inc., priority 2017, dated 2022):
Converted amounts (≈) assume the structure as drawn.

What was measured:
Format in all cases: cell-based
Candida albicans 90028 = assay: In vitro antifungal assay (Example IX), microdilution broth, MIC; conditions: minimum inhibitory concentration (≥50% inhibition), 35° C., 40-48 h, RPMI1640
Method in brief: (§1)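 CLSI broth microdilution in RPMI1640 with 2.5×10^3 cells/mL and final compound concentrations of 2-0.0019 μg/mL (1% DMSO). C. albicans 90028 plates were incubated at 35° C. for 40-48 h and C. neoformans H99 for 72 h. MIC was read as minimum inhibitory concentration, verified at 600 nm.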

[1] = system: Cryptococcus neoformans H99; assay: as above; conditions: minimum inhibitory concentration (≥50% inhibition), 35° C., 72 h, RPMI1640
Method in brief: as §1

Cryptococcus gattii = assay: as above; conditions: minimum inhibitory concentration (≥50% inhibition), 35° C., 72 h (Cryptococcus), RPMI1640
Method in brief: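 Broth microdilution in RPMI1640 with 2.5×10^3 cells/mL inoculum; final compound concentrations were 2–0.0019 μg/mL, with 1% DMSO. Cryptococcus plates were incubated at 35 °C for 72 h, and growth was read at 600 nm to give the MIC.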

[2] = system: Aspergillus fumigatus MYA3626; assay: In vitro antifungal assay (Example IX), microdilution broth, MEC; conditions: minimum effective concentration (shortening of hyphae), 35° C., 40-48 h, RPMI1640
Method in brief: (§2)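 Spore suspensions of A. fumigatus and R. pusillus adjusted to 1-2×10^4 spores/mL in RPMI1640 and exposed to compound dilutions prepared in DMSO, by broth microdilution. MEC taken as the lowest concentration shortening hyphae versus DMSO control wells, read as for echinocandins.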

[3] = system: Rhizomucor pusillus 46342; assay: as above; conditions: minimum effective concentration (shortening of hyphae), 35° C., 40-48 h, RPMI1640
Method in brief: as §2

MIC (Candida albicans 90028) [µg/mL] | MIC [1] [µg/mL] | MIC (Cryptococcus gattii) [µg/mL] | Compound | minimal effective concentration [2] [µg/mL] | minimal effective concentration [3] [µg/mL]
0.01 to 0.1 (≈ 0.0278 to 0.278 µM) | 0.01 to 0.1 (≈ 0.0278 to 0.278 µM) | 0.01 to 0.1 (≈ 0.0278 to 0.278 µM) | Nc1ncccc1-c1cc(Cc2ccc(OCc3ccccn3)nc2)no1 [compound 35, 3-(3-((6-(pyridin-2-ylmethoxy)pyridin-3-yl)methyl)isoxazol-5-yl)pyridin-2-amine] | 0.01 to 0.1 | > 1
0.01 to 0.1 (≈ 0.0278 to 0.278 µM) | 0.01 to 0.1 (≈ 0.0278 to 0.278 µM) | 0.01 to 0.1 (≈ 0.0278 to 0.278 µM) | Nc1ncccc1-c1cc(Cc2ccc(OCc3cccnc3)nc2)no1 [compound 36, 3-(3-((6-(pyridin-3-ylmethoxy)pyridin-3-yl)methyl)isoxazol-5-yl)pyridin-2-amine] | 0.01 to 0.1 | > 1
0.01 to 0.1 (≈ 0.0278 to 0.278 µM) | ≤ 0.01 | ≤ 0.01 | Nc1ncccc1-c1cc(Cc2ccc(OCc3ccncc3)nc2)no1 [compound 37, 3-(3-((6-(pyridin-4-ylmethoxy)pyridin-3-yl)methyl)isoxazol-5-yl)pyridin-2-amine] | 0.01 to 0.1 | > 1
0.1 to 1 (≈ 0.275 to 2.75 µM) | 0.1 to 1 (≈ 0.275 to 2.75 µM) | 0.1 to 1 (≈ 0.275 to 2.75 µM) | Cc1cc(COc2ccc(Cc3cc(-c4cccnc4N)on3)cn2)no1 [compound 38, 3-(3-((6-((5-methylisoxazol-3-yl)methoxy)pyridin-3-yl)methyl)isoxazol-5-yl)pyridin-2-amine] | 0.01 to 0.1 | 0.1 to 1
0.1 to 1 (≈ 0.268 to 2.68 µM) | 0.1 to 1 (≈ 0.268 to 2.68 µM) | 0.1 to 1 (≈ 0.268 to 2.68 µM) | Nc1ncccc1-c1cc(Cc2ccc(OCCc3ccccn3)nc2)no1 [compound 39, 3-(3-((6-(2-(pyridin-2-yl)ethoxy)pyridin-3-yl)methyl)isoxazol-5-yl)pyridin-2-amine] | 0.1 to 1 | > 1
0.1 to 1 (≈ 0.274 to 2.74 µM) | 0.01 to 0.1 (≈ 0.0274 to 0.274 µM) | 0.01 to 0.1 (≈ 0.0274 to 0.274 µM) | Nc1ncccc1-c1cc(Cc2ccc(OCc3cccs3)nc2)no1 [compound 40, 3-(3-((6-(thiophen-2-ylmethoxy)pyridin-3-yl)methyl)isoxazol-5-yl)pyridin-2-amine] | 0.01 to 0.1 | 0.1 to 1
0.01 to 0.1 (≈ 0.0274 to 0.274 µM) | 0.01 to 0.1 (≈ 0.0274 to 0.274 µM) | 0.01 to 0.1 (≈ 0.0274 to 0.274 µM) | Nc1ncccc1-c1cc(Cc2ccc(OCc3cscn3)nc2)no1 [compound 41, 3-(3-((6-(thiazol-4-ylmethoxy)pyridin-3-yl)methyl)isoxazol-5-yl)pyridin-2-amine] | 0.01 to 0.1 | 0.1 to 1
0.01 to 0.1 (≈ 0.0274 to 0.274 µM) | 0.01 to 0.1 (≈ 0.0274 to 0.274 µM) | 0.01 to 0.1 (≈ 0.0274 to 0.274 µM) | Nc1ncccc1-c1cc(Cc2ccc(OCc3nccs3)nc2)no1 [compound 42, 3-(3-((6-(thiazol-2-ylmethoxy)pyridin-3-yl)methyl)isoxazol-5-yl)pyridin-2-amine] | 0.01 to 0.1 | 0.1 to 1
0.1 to 1 (≈ 0.31 to 3.1 µM) | 0.01 to 0.1 (≈ 0.031 to 0.31 µM) | 0.01 to 0.1 (≈ 0.031 to 0.31 µM) | Nc1ncccc1-c1cc(Cc2ccc(OCC3CC3)nc2)no1 [compound 43, 3-(3-((6-(cyclopropylmethoxy)pyridin-3-yl)methyl)isoxazol-5-yl)pyridin-2-amine] | 0.01 to 0.1 | 0.1 to 1
0.1 to 1 (≈ 0.277 to 2.77 µM) | 0.1 to 1 (≈ 0.277 to 2.77 µM) | 0.1 to 1 (≈ 0.277 to 2.77 µM) | Nc1ncccc1-c1cc(Cc2ccc(OCc3ncccn3)nc2)no1 [compound 46, 3-(3-((6-(pyrimidin-2-ylmethoxy)pyridin-3-yl)methyl)isoxazol-5-yl)pyridin-2-amine] | 0.1 to 1 | > 1
0.01 to 0.1 (≈ 0.0277 to 0.277 µM) | 0.1 to 1 (≈ 0.277 to 2.77 µM) | 0.1 to 1 (≈ 0.277 to 2.77 µM) | Nc1ncccc1-c1cc(Cc2ccc(OCc3cnccn3)nc2)no1 [compound 47, 3-(3-((6-(pyrazin-2-ylmethoxy)pyridin-3-yl)methyl)isoxazol-5-yl)pyridin-2-amine] | 0.1 to 1 | 0.1 to 1
0.01 to 0.1 (≈ 0.0287 to 0.287 µM) | 0.01 to 0.1 (≈ 0.0287 to 0.287 µM) | 0.01 to 0.1 (≈ 0.0287 to 0.287 µM) | Nc1ncccc1-c1cc(Cc2ccc(OCc3ccoc3)nc2)no1 [compound 48, 3-(3-((6-(furan-3-ylmethoxy)pyridin-3-yl)methyl)isoxazol-5-yl)pyridin-2-amine] | 0.01 to 0.1 | 0.1 to 1
0.1 to 1 (≈ 0.264 to 2.64 µM) | 0.1 to 1 (≈ 0.264 to 2.64 µM) | 0.1 to 1 (≈ 0.264 to 2.64 µM) | Cc1nc(COc2ccc(Cc3cc(-c4cccnc4N)on3)cn2)cs1 [compound 50, 3-(3-((6-((2-methylthiazol-4-yl)methoxy)pyridin-3-yl)methyl)isoxazol-5-yl)pyridin-2-amine] | 0.1 to 1 | > 1
0.1 to 1 (≈ 0.265 to 2.65 µM) | 0.1 to 1 (≈ 0.265 to 2.65 µM) | 0.1 to 1 (≈ 0.265 to 2.65 µM) | Nc1ncccc1-c1cc(Cc2ccc(OCc3ccc(F)cn3)nc2)no1 [compound 51, 3-(3-((6-((5-fluoropyridin-2-yl)methoxy)pyridin-3-yl)methyl)isoxazol-5-yl)pyridin-2-amine] | 0.01 to 0.1 | 0.1 to 1
0.1 to 1 (≈ 0.286 to 2.86 µM) | 0.1 to 1 (≈ 0.286 to 2.86 µM) | 0.1 to 1 (≈ 0.286 to 2.86 µM) | Nc1ncccc1-c1cc(Cc2ccc(OCc3ncco3)nc2)no1 [compound 53, 3-(3-((6-(oxazol-2-ylmethoxy)pyridin-3-yl)methyl)isoxazol-5-yl)pyridin-2-amine] | 0.1 to 1 | 0.1 to 1
0.01 to 0.1 (≈ 0.0265 to 0.265 µM) | 0.01 to 0.1 (≈ 0.0265 to 0.265 µM) | ≤ 0.01 | Nc1ncccc1-c1cc(Cc2ccc(OCc3ccncc3F)nc2)no1 [compound 54, 3-(3-((6-((3-fluoropyridin-4-yl)methoxy)pyridin-3-yl)methyl)isoxazol-5-yl)pyridin-2-amine] | 0.01 to 0.1 | > 1
0.1 to 1 (≈ 0.268 to 2.68 µM) | 0.1 to 1 (≈ 0.268 to 2.68 µM) | 0.1 to 1 (≈ 0.268 to 2.68 µM) | CC(Oc1ccc(Cc2cc(-c3cccnc3N)on2)cn1)c1ccccn1 (stereo not drawn) [compound 55, 3-(3-((6-(1-(pyridin-2-yl)ethoxy)pyridin-3-yl)methyl)isoxazol-5-yl)pyridin-2-amine] | 0.1 to 1 | > 1
0.01 to 0.1 (≈ 0.0297 to 0.297 µM) | 0.01 to 0.1 (≈ 0.0297 to 0.297 µM) | ≤ 0.01 | Nc1ncccc1-c1cc(Cc2ccc(OCC3CCC3)nc2)no1 [compound 57, 3-(3-((6-(cyclobutylmethoxy)pyridin-3-yl)methyl)isoxazol-5-yl)pyridin-2-amine] | 0.01 to 0.1 | 0.1 to 1
0.01 to 0.1 (≈ 0.0291 to 0.291 µM) | 0.1 to 1 (≈ 0.291 to 2.91 µM) | 0.01 to 0.1 (≈ 0.0291 to 0.291 µM) | Nc1ncccc1-c1cc(Cc2ccc(Nc3ccccc3)nc2)no1 [compound 58, 5-((5-(2-aminopyridin-3-yl)isoxazol-3-yl)methyl)-N-phenylpyridin-2-amine] | 0.1 to 1 | 0.1 to 1
0.01 to 0.1 (≈ 0.0277 to 0.277 µM) | 0.01 to 0.1 (≈ 0.0277 to 0.277 µM) | 0.01 to 0.1 (≈ 0.0277 to 0.277 µM) | Nc1ncccc1-c1cc(Cc2ccc(Nc3ccccc3F)nc2)no1 [compound 60, 5-((5-(2-aminopyridin-3-yl)isoxazol-3-yl)methyl)-N-(2-fluorophenyl)pyridin-2-amine] | 0.1 to 1 | > 1
0.01 to 0.1 (≈ 0.0267 to 0.267 µM) | 0.1 to 1 (≈ 0.267 to 2.67 µM) | 0.01 to 0.1 (≈ 0.0267 to 0.267 µM) | Nc1ncccc1-c1cc(Cc2ccc(SCc3ccccc3)nc2)no1 [compound 61, 3-(3-((6-(benzylthio)pyridin-3-yl)methyl)isoxazol-5-yl)pyridin-2-amine] | 0.01 to 0.1 | > 1
